Assay results published in patent US20230174584A1, “Antibiotic Compounds” (priority 2019, published 2023).
Converted amounts (≈) assume the structure as drawn.

Legend:
[1] = test system: E. faecium E2359; assay: MIC assay; assay type: cell-based, Enterococcus faecium; conditions: E. faecium E2359, VanB
[2] = test system: panel of 31 vancomycin-resistant E. faecium strains; assay: MIC assay, MIC50/MIC90 over panel; assay type: cell-based, Enterococcus faecium; conditions: panel of 31 vancomycin-resistant E. faecium strains
Experimental: The antibacterial activity of the compounds was tested against a panel of bacteria, including Gram-positive bacteria (S. aureus ATCC29213, S. aureus USA300, S. aureus LIM-2, NR-45881, S. aureus HIP13419, NR-46413, E. faecium E155, E. faecium E7314, E. faecium E980, E. faecalis E1246, E. faecalis E7406 and S. pneumonia 153). The antibacterial activity of the compounds was further tested against S. aureus NY-155, NR-46236, S. aureus HIP12864, NR-46074, S. aureus 880 (BR-VRSA), NR-49120, E. faecalis E1246, E. faecalis E7604, as well as some Gram-negative bacteria (Escherichia coli and Klebsiella pneumoniae). Minimum inhibitory concentrations (MICs) in μg/mL were performed according to the CLSI guidelines. From glycerol stocks, bacterial strains were cultured on blood agar plates and incubated at 37° C. for 18 h. A single colony was transferred to tryptic soy broth (TSB) with 0.002% polysorbate 80 (p80). For the Enterococcus, VISA and VRSA strains, the cultures were grown at 37° C. until the optical density of the suspension reached a level equivalent to the 0.5 McFarland standard. The bacterial suspensions were diluted in TSB with 0.002% p80 to reach a bacterial cell density of 10^6 CFU/mL. In case of the other (vancomycin-sensitive) S. aureus strains, the direct colony suspension method was used. For these strains, after transfer of the colonies to TSB with 0.002% p80, they were immediately diluted to 10^6 CFU/mL, instead of incubated prior to this dilution. In the case of S. pneumonia, direct colony suspension was used by immediately suspending multiple colonies from fresh blood agar plates in TSB+0.002% p80 to an OD600 of 0.5 and subsequent dilution to 10^6 CFU mL^−1 in TSB+0.002% p80+5% lysed horse blood. Antibiotic dilutions for this strains were also made in TSB+0.002% p80+5% lysed horse blood. Both agar and microplates containing S. pneumonia were incubated at 37° C. with 5% CO2 for 24 h with constant shaking (600 rpm). […] The cultures were grown to exponential phase (OD600=0.5) at 37° C. […] In polypropylene 96-well microtiter plates, test compounds were added in biological triplicates and serial diluted 2-fold by transfer and mixing from one well to the next to achieve a final volume of 50 μL per well. An equal volume of bacterial suspension (10^6 CFU mL^−1) was added to the wells. The plates were sealed with breathable membranes and incubated at 37° C. for 24 h with constant shaking (600 rpm). In polypropylene microtiter plates, 100 μL of the test compounds was added to the first row in biological triplicates, and 50 μL of media was added to the other wells. The compounds were subjected to serial dilution by transfer and mixing of 50 μL from one well to the next. Subsequently, 50 μL of bacterial suspension (10^6 CFU/mL) was added to the wells. The plates were sealed with breathable membranes and incubated at 37° C. for 24 h with constant shaking (600 rpm). Positive growth control consisted of wells with bacterial suspension and without antibiotic. Negative growth control consisted of solely media without bacterial suspension or antibiotic. The MICs were determined from the median of a minimum of triplicates.

[3] = test system: E. faecium E155; assay: microbe, parasite or virus in culture; assay type: cell-based, Enterococcus faecium
Procedure, shortened: (§1)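 CLSI broth microdilution in TSB + 0.002% polysorbate 80, 10^6 CFU/mL inoculum, 2-fold compound dilutions, 24 h at 37° C with shaking (600 rpm). VISA, VRSA and Enterococcus inocula grown to 0.5 McFarland before dilution; vancomycin-sensitive S. aureus by direct colony suspension. MIC (μg/mL) as median of ≥ triplicates.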

[4] = test system: E. faecium E7314; assay: microbe, parasite or virus in culture; assay type: cell-based, Enterococcus faecium
Procedure, shortened: as §1

[5] = test system: E. faecium E7312; assay: MIC assay; assay type: cell-based, Enterococcus faecium; conditions: E. faecium E7312, VanA
[6] = test system: Escherichia coli ATCC 35218; assay: MIC assay; assay type: cell-based
Procedure, shortened: as §1

[7] = test system: Klebsiella pneumoniae ATCC 27736; assay: MIC assay; assay type: cell-based
Procedure, shortened: as §1

[8] = test system: E. faecium E1441; assay: MIC assay; assay type: cell-based, Enterococcus faecium; conditions: E. faecium E1441, VanA
[9] = test system: S. aureus HIP13419, NR-46413; assay: microbe, parasite or virus in culture; assay type: cell-based, Staphylococcus aureus; conditions: S. aureus HIP13419, NR-46413 VRSA
Procedure, shortened: as §1

[10] = test system: S. aureus USA300; assay: microbe, parasite or virus in culture; assay type: cell-based, Staphylococcus aureus
Procedure, shortened: as §1

[11] = test system: S. aureus LIM-2, NR-25881; assay: MIC assay; assay type: cell-based, Staphylococcus aureus; conditions: S. aureus LIM-2, NR-25881 VISA
Procedure, shortened: as §1

[12] = test system: S. aureus 880 (BR-VRSA), NR-49120; assay: MIC assay; assay type: cell-based, Staphylococcus aureus
Procedure, shortened: as §1

[13] = test system: S. aureus HIP12864, NR-46074; assay: MIC assay; assay type: cell-based, Staphylococcus aureus; conditions: S. aureus HIP12864, NR-46074 VISA
Procedure, shortened: as §1

[14] = test system: S. aureus NY-155, NR-46236; assay: MIC assay; assay type: cell-based, Staphylococcus aureus; conditions: S. aureus NY-155, NR-46236 MRSA
Procedure, shortened: as §1

[15] = test system: S. aureus ATCC29213; assay: MIC assay; assay type: cell-based, Staphylococcus aureus; conditions: S. aureus ATCC29213 MSSA
Procedure, shortened: as §1

[16] = E. faecium E155, VanA (Table 10)
[17] = E. faecium E7314, VanB (Table 10)

| Structure (SMILES) | MIC [1] | MIC50 [2] | MIC90 [2] | MIC [3, 16] | MIC ([3]; E. faecium E155 VRE (VanA)) | MIC [4, 17] | MIC ([4]; E. faecium E7314 VRE (VanB)) | MIC [5] | MIC [6] | MIC [7] | MIC [8] | MIC [9] | MIC ([10]; MRSA USA300, TSB + 0.002% p80) | MIC ([10]; S. aureus USA300 MRSA) | MIC [11] | MIC ([12]; S. aureus 880, NR-49120 VRSA) | MIC ([12]; strain BR-VRSA) | MIC [13] | MIC [14] | MIC [15] |
| --- | --- | --- | --- | --- | --- | --- | --- | --- | --- | --- | --- | --- | --- | --- | --- | --- | --- | --- | --- | --- |
| CCCCCCCNC(N)=Nc1ccc(CN[C@@]2(C)C[C@H](O[C@H]3[C@H](Oc4c5cc6cc4Oc4ccc(cc4Cl)[C@@H](O)[C@@H](NC(=O)[C@@H](CC(C)C)NC)C(=O)N[C@@H](CC(N)=O)C(=O)N[C@H]6C(=O)N[C@H]4C(=O)N[C@H](C(=O)N[C@H](C(=O)O)c6cc(O)cc(O)c6-c6cc4ccc6O)[C@H](O)c4ccc(c(Cl)c4)O5)O[C@H](CO)[C@@H](O)[C@@H]3O)O[C@@H](C)[C@H]2O)cc1 [Compound 5] | ≤0.008 mg/L | 1 mg/L (≈ 0.59 µM) | 8 mg/L (≈ 4.72 µM) | 2 mg/L (≈ 1.18 µM) | 2 mg/L (≈ 1.18 µM) | ≤0.008 mg/L | 0.007812 mg/L (≈ 0.00461 µM) | 0.25 mg/L (≈ 0.148 µM) | >128 mg/L | >128 mg/L | 4 mg/L (≈ 2.36 µM) | 1 mg/L (≈ 0.59 µM) | 0.016 mg/L | 0.01562 mg/L (≈ 0.00922 µM) | 0.031 mg/L (≈ 0.0183 µM) | 4 mg/L (≈ 2.36 µM) | 4 mg/L (≈ 2.36 µM) | 0.063 mg/L (≈ 0.0372 µM) | ≤0.008 mg/L | ≤0.007812 mg/L |
| CN[C@H](CC(C)C)C(=O)N[C@H]1C(=O)N[C@@H](CC(N)=O)C(=O)N[C@H]2C(=O)N[C@H]3C(=O)N[C@H](C(=O)N[C@H](C(=O)O)c4cc(O)cc(O)c4-c4cc3ccc4O)[C@H](O)c3ccc(c(Cl)c3)Oc3cc2cc(c3O[C@@H]2O[C@H](CO)[C@@H](O)[C@H](O)[C@H]2O[C@H]2C[C@](C)(NCc3ccc(N=C(N)NC/C=C(\C)CCC=C(C)C)cc3)[C@H](O)[C@H](C)O2)Oc2ccc(cc2Cl)[C@H]1O [Compound 14] | ≤0.008 mg/L | 1 mg/L (≈ 0.577 µM) | 8 mg/L (≈ 4.62 µM) | 1 mg/L (≈ 0.577 µM) | 1 mg/L (≈ 0.577 µM) | ≤0.008 mg/L | ≤0.007812 mg/L | 0.25 mg/L (≈ 0.144 µM) | >128 mg/L | >128 mg/L | 4 mg/L (≈ 2.31 µM) | 0.063 mg/L (≈ 0.0364 µM) | 0.031 mg/L | 0.03125 mg/L (≈ 0.018 µM) | ≤0.008 mg/L | 1 mg/L (≈ 0.577 µM) | – | 0.031 mg/L (≈ 0.0179 µM) | ≤0.008 mg/L | ≤0.007812 mg/L |
| CCCCCCCCCNC(N)=Nc1ccc(CN[C@@]2(C)C[C@H](O[C@H]3[C@H](Oc4c5cc6cc4Oc4ccc(cc4Cl)[C@@H](O)[C@@H](NC(=O)[C@@H](CC(C)C)NC)C(=O)N[C@@H](CC(N)=O)C(=O)N[C@H]6C(=O)N[C@H]4C(=O)N[C@H](C(=O)N[C@H](C(=O)O)c6cc(O)cc(O)c6-c6cc4ccc6O)[C@H](O)c4ccc(c(Cl)c4)O5)O[C@H](CO)[C@@H](O)[C@@H]3O)O[C@@H](C)[C@H]2O)cc1 [Compound 7] | ≤0.008 mg/L | 0.125 mg/L (≈ 0.0726 µM) | 1 mg/L (≈ 0.58 µM) | 0.5 mg/L (≈ 0.29 µM) | 0.5 mg/L (≈ 0.29 µM) | ≤0.008 mg/L | ≤0.007812 mg/L | 0.031 mg/L (≈ 0.018 µM) | >128 mg/L | >128 mg/L | 1 mg/L (≈ 0.58 µM) | 0.125 mg/L (≈ 0.0726 µM) | ≤0.008 mg/L | ≤0.007812 mg/L | ≤0.008 mg/L | 0.5 mg/L (≈ 0.29 µM) | – | ≤0.008 mg/L | ≤0.008 mg/L | 0.01562 mg/L (≈ 0.00907 µM) |
